Experimental data published in patent US20240216412A1, “OXIDIZED NICOTINAMIDE ADENINE DINUCLEOTIDE (NAD+) PRECURSOR TREATMENT FOR HEART FAILURE ALLEVIATION INDEPENDENT OF MITOCHONDRIAL PROTEIN DEACETYLATION” (University of Washington, priority 2022, published 2024).

Test system: NAD+ salvage pathway / NAD(H) redox in mouse heart
Assay: Cardiac NAD+/NADH determination and targeted LC-MS metabolomics in TAC hearts
Format: in vivo
Method: NAD^+/NADH determination. NAD^+ and NADH were determined in 8 mg heart tissue using BioAssay Systems EnzyChrom NAD^+/NAD Assay Kit (E2ND-100) per manufactures instructions.
Targeted Metabolomics. Analysis of metabolites was done by The Northwest Metabolomics Research Center at the University of Washington. Briefly, aqueous metabolites for targeted LC-MS profiling of heart tissue samples were extracted from frozen heart tissue (10 mg) by precipitating in 80:20% methanol:water. After centrifugation, the supernatant was transferred to LC/MS auto sampler vials (Thermo Fisher). The protein pellet was redissolved in 0.1M NaOH and protein concentration measured for normalization. Samples were first homogenized in 200 μL purified deionized water at 4° C., and then 800 μL of cold methanol. Afterwards samples were vortexed, stored for 30 minutes at −20° C., sonicated in an ice bath for 10 minutes, centrifuged for 15 min at 14,000 rpm and 4° C., and then 600 μL of supernatant was collected from each sample. […] Samples were transferred into LC vials and placed into a temperature controlled autosampler for LC-MS analysis.
LC-MS Assay. Targeted LC-MS metabolite analysis was performed on a duplex-LC-MS system composed of two Shimadzu UPLC pumps, CTC Analytics PAL HTC-xt temperature-controlled auto-sampler (set at 4° C.) and AB Sciex 6500+ Triple Quadrupole MS equipped with ESI ionization source (2). UPLC pumps were connected to the autosampler in parallel and were able to perform two chromatography separations independently from each other. Each sample was injected twice on two identical analytical columns (Waters XBridge BEH Amide XP) performing separations in hydrophilic interaction liquid chromatography (HILIC) mode. While one column was performing separation and MS data acquisition in ESI+ ionization mode, the other column was getting equilibrated for sample injection, chromatography separation and MS data acquisition in ESI-mode. Each chromatography separation was 18 minutes (total analysis time per sample was 36 minutes). MS data acquisition was performed in multiple-reaction-monitoring (MRM) mode. LC-MS system was controlled using AB Sciex Analyst 1.6.3 software. Measured MS peaks were integrated using AB Sciex MultiQuant 3.0.3 software. The LC-MS assay was targeting 361 metabolites (plus 2 spiked reference internal standards). Up to 192 metabolites (plus 2 spiked standards) were measured across the study set, and over 95% of measured metabolites were measured across all the samples. In the addition to the study samples, two sets of quality control (QC) samples were used to monitor the assay performance as well as data reproducibility. One QC [QC(I)] was a pooled human serum sample used to monitor system performance and the other QC [QC(S)] was pooled study samples and this QC was used to monitor data reproducibility. Each QC sample was injected per every 10 study samples. The data were well reproducible with a median CV of 7.0%.

NC(=O)c1ccc[n+]([C@@H]2O[C@H](CO)[C@@H](O)[C@H]2O)c1 [NR, Nicotinamide riboside chloride]
Markers of lipid oxidation (oxidized glutathione) (TAC mice): decreased | Cardiac levels of NAD(H) (WT and Sirt3Ko hearts): increased | Cardiac levels of methyl-nicotinamide (MeNAM) (WT and Sirt3Ko hearts): increased | Cardiac levels of nicotinamide (NAM) (WT and Sirt3Ko hearts): increased | NAD+/NADH ratio (both genotypes, after TAC): normalized | Metabolites indicative of myocardial fibrosis (hydroxyproline, putrescine, spermidine) (myocardial tissue of TAC hearts, vs vehicle): reduced
